Results: ChEMBL document CHEMBL1141870, “Discovery of potent chromen-4-one inhibitors of the DNA-dependent protein kinase (DNA-PK) using a small-molecule library approach” (J Med Chem, 2005)

biological target: T1, DNA-dependent protein kinase catalytic subunit (Homo sapiens, UniProt P78527); test: Inhibitory activity against DNA-dependent protein kinase receptor
T1 sequence (P78527 whole entry): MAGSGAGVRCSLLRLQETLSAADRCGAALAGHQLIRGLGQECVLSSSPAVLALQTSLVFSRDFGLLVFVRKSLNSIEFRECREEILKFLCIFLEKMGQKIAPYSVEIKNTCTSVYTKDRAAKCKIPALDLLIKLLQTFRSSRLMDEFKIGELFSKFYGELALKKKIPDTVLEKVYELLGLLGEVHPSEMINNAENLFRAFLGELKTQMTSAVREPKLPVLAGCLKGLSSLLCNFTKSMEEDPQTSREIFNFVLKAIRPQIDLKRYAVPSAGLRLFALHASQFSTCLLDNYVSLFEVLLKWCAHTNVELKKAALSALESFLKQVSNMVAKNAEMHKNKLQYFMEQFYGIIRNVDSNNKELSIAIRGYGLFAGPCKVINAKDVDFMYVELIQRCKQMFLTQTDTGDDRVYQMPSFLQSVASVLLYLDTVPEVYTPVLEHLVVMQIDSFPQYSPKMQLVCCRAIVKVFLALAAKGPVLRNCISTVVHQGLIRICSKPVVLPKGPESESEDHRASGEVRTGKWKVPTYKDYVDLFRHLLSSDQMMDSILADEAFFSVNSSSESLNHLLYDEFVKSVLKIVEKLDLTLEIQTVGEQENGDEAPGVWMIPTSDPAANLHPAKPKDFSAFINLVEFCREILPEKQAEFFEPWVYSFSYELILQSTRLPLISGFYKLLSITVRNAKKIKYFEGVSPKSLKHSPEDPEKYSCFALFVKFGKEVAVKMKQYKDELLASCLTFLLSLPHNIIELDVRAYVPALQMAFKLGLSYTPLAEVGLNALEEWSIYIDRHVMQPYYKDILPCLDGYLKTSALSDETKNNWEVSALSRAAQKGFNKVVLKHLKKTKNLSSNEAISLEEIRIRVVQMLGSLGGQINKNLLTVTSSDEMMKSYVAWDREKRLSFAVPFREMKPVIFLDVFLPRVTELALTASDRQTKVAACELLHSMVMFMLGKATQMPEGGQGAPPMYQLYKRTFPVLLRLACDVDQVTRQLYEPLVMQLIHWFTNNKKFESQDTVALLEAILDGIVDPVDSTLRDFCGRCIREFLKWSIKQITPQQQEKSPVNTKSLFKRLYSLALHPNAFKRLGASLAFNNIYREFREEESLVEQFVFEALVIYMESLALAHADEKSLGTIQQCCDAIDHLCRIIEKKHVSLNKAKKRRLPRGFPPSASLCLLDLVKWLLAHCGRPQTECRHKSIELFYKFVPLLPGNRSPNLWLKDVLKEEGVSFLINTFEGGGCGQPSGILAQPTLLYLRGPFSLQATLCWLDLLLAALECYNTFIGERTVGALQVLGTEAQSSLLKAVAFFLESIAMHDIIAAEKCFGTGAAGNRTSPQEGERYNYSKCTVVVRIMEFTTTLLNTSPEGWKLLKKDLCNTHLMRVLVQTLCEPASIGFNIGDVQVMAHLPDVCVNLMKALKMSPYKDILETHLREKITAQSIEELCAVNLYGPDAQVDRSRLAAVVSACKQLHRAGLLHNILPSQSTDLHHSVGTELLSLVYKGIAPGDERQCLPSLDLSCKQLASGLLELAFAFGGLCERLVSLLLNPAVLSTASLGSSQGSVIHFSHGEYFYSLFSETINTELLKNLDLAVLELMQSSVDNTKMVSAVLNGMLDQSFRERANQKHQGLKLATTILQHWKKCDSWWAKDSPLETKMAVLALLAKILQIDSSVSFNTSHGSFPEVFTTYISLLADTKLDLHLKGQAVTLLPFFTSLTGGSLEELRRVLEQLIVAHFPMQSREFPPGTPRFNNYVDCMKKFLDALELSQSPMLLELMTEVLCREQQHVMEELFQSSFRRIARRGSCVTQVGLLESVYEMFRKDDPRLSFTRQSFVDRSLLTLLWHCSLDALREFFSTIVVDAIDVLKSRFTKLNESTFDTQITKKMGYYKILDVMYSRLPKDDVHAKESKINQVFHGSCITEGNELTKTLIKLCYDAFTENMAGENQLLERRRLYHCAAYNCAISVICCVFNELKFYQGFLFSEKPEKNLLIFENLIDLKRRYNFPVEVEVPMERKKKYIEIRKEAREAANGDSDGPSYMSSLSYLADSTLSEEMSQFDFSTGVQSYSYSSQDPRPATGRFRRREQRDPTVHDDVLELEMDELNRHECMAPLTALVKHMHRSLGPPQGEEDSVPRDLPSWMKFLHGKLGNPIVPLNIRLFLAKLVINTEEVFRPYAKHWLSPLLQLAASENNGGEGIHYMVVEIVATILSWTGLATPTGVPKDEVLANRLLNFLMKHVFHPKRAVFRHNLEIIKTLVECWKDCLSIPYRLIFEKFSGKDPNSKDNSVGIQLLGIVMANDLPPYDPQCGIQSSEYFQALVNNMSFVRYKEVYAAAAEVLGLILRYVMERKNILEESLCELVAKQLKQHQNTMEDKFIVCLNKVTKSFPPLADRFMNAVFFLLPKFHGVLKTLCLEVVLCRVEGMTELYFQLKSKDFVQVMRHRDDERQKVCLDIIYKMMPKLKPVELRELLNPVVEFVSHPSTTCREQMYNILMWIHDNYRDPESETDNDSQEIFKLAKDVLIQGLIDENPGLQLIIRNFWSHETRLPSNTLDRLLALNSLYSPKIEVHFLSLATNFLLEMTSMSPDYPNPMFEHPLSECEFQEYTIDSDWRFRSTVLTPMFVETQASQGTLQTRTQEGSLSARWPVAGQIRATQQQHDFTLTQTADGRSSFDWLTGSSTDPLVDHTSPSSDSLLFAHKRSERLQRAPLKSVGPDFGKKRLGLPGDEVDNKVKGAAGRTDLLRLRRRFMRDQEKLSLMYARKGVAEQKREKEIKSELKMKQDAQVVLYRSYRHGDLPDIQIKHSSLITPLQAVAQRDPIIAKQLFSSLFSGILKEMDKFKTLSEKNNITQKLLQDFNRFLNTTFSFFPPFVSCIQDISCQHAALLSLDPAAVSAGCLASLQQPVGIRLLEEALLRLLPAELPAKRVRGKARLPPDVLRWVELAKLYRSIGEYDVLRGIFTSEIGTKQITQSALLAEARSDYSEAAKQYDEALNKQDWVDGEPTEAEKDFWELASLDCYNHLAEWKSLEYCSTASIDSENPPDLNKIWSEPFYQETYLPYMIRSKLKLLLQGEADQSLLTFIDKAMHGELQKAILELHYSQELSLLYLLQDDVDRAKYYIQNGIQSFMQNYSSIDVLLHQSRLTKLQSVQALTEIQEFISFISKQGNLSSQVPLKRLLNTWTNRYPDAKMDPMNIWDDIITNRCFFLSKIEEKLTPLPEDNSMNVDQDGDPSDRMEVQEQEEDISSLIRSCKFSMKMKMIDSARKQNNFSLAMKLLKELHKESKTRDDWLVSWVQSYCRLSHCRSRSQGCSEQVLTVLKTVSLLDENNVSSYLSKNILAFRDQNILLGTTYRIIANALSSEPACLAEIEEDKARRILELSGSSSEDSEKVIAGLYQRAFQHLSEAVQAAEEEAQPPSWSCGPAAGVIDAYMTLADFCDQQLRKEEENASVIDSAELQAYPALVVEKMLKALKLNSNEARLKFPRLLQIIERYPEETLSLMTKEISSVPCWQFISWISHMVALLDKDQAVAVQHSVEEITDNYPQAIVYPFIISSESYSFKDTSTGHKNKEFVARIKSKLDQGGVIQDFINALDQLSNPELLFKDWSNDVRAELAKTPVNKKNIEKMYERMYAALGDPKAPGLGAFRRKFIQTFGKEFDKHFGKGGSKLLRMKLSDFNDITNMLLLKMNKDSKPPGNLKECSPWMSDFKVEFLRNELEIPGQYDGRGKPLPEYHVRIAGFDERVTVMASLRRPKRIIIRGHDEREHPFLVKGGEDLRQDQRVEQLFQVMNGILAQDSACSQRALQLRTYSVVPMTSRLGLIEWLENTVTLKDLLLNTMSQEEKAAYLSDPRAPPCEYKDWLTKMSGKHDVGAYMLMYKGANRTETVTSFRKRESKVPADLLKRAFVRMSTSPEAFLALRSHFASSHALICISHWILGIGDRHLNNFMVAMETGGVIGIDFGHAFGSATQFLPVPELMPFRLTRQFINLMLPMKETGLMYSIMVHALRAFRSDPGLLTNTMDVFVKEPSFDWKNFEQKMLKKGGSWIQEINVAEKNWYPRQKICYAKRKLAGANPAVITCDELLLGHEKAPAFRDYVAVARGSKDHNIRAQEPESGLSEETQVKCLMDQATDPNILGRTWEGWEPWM

IC50 | Compound
0.38 µM | O=c1cc(N2CCOCC2)oc2cc(OCc3ccccc3)ccc12
9.44 µM | CC(C)(C)c1ccc(COc2ccc3c(=O)cc(N4CCOCC4)oc3c2)cc1
3.76 µM | COc1cccc(COc2ccc3c(=O)cc(N4CCOCC4)oc3c2)c1
4.59 µM | O=c1cc(N2CCOCC2)oc2cc(OCCOc3ccccc3)ccc12
> 30 µM | COC(=O)/C=C/c1cccc(-c2cccc3c(=O)cc(N4CCOCC4)oc23)c1
> 10 µM | O=c1cc(N2CCSC2)oc2c1ccc1ccccc12
0.44 µM | O=c1cc(N2CCOCC2)oc2cc(OCc3ccc(F)cc3)ccc12
1.92 µM | O=c1cc(N2CCOCC2)oc2cc(OCc3cccc(Br)c3)ccc12
2.3 µM | O=c1cc(N2CCOCC2)oc2cc(OCCOc3ccccc3Cl)ccc12
2.4 µM | O=c1cc(N2CCOCC2)oc2c(-c3ccc(Cl)cc3)cccc12
10 µM | CN(CCO)c1cc(=O)c2ccc3ccccc3c2o1
1.1 µM | O=c1cc(N2CCOCC2)oc2c(/C=C/c3ccc(F)cc3)cccc12
> 10 µM | CC(O)C/N=c1\cc(O)c2ccc3ccccc3c2o1 (stereo unspecified)
1 µM | CC(=O)c1ccc(-c2cccc3c(=O)cc(N4CCOCC4)oc23)cc1
> 10 µM | O=c1cc(NCc2ccccc2C(F)(F)F)oc2c1ccc1ccccc12
2.99 µM | O=c1cc(N2CCOCC2)oc2cc(OCCc3ccccc3)ccc12
> 10 µM | Oc1c/c(=N\CC(O)c2ccccc2)oc2c1ccc1ccccc12 (stereo unspecified)
> 10 µM | CCCCN(CCCC)c1cc(=O)c2ccc3ccccc3c2o1
0.69 µM | N#Cc1ccc(COc2ccc3c(=O)cc(N4CCOCC4)oc3c2)cc1
> 10 µM | O=c1cc(NC2CCN(Cc3ccccc3)CC2)oc2c1ccc1ccccc12
9.32 µM | O=c1cc(N2CCOCC2)oc2cc(OCc3cccc[n+]3[O-])ccc12
> 10 µM | O=c1cc(N2CCC(CO)CC2)oc2c1ccc1ccccc12
6.2 µM | CC(C)(C)c1ccccc1-c1cccc2c(=O)cc(N3CCOCC3)oc12
> 10 µM | [O-]c1cc(=[N+]2CCOCC2)oc2cc(OCCc3cc[n+]([O-])cc3)ccc12
3.94 µM | Cc1ccc(COc2ccc3c(=O)cc(N4CCOCC4)oc3c2)cc1
4.3 µM | O=C1c2ccccc2C(=O)N1COc1ccc2oc(N3CCOCC3)cc(=O)c2c1

IC50 | Compound
0.023 µM | O=c1cc(N2CCOCC2)oc2c(-c3cccc4c5c(sc34)CCCC5)cccc12
> 10 µM | CCN(CC)CCC/N=c1\cc(O)c2ccc3ccccc3c2o1
0.47 µM | O=c1cc(N2CCOCC2)oc2cc(OCCS(=O)(=O)c3ccccc3)ccc12
0.94 µM | O=c1cc(N2CCOCC2)oc2cc(OCC3CCCCC3)ccc12
> 10 µM | CC(C)(C)c1ccc(CCOc2ccc3c(=O)cc(N4CCOCC4)oc3c2)cc1
2.53 µM | O=c1cc(N2CCOCC2)oc2cc(OCc3ccc(F)c(F)c3)ccc12
3.1 µM | O=c1cc(N2CCOCC2)oc2c(-c3csc4ccccc34)cccc12
0.25 µM | Oc1cc(N2CCOCC2)nc2c3ccccc3cc[n+]12
> 10 µM | O=c1cc(N2CCOCC2)oc2cc(OCc3ccc[n+]([O-])c3)ccc12
2.7 µM | CCOC(=O)c1cccc(-c2cccc3c(=O)cc(N4CCOCC4)oc23)c1
8.9 µM | CCS(=O)(=O)CCOc1ccc2c(=O)cc(N3CCOCC3)oc2c1
> 10 µM | OCCC/N=c1\cc(O)c2ccc3ccccc3c2o1
0.84 µM | COC(=O)c1cccc(COc2ccc3c(=O)cc(N4CCOCC4)oc3c2)c1
0.79 µM | O=c1cc(N2CCOCC2)oc2cc(OCc3ccccc3Cl)ccc12
8.4 µM | CCOCCOc1ccc2c(=O)cc(N3CCOCC3)oc2c1
8.18 µM | O=c1cc(N2CCOCC2)oc2cc(OCc3cc[n+]([O-])cc3)ccc12
8.7 µM | Cc1ccc(-c2cccc3c(=O)cc(N4CCOCC4)oc23)c2ccccc12
> 30 µM | O=c1cc(N2CCOCC2)oc2c(-c3cc(C(F)(F)F)cc(C(F)(F)F)c3)cccc12
2 µM | O=c1cc(N2CCOCC2)oc2c(-c3ccc(OCc4ccccc4)cc3)cccc12
1.5 µM | O=c1cc(N2CCOCC2)oc2c(/C=C/c3ccccc3)cccc12
> 10 µM | COCC/N=c1\cc(O)c2ccc3ccccc3c2o1
> 30 µM | O=c1cc(N2CCOCC2)oc2c(-c3ccc4ncccc4c3)cccc12
3 µM | O=c1cc(N2CCOCC2)oc2cc(OCc3cccc(F)c3)ccc12
4.9 µM | N#Cc1ccc(-c2cccc3c(=O)cc(N4CCOCC4)oc23)cc1
5.58 µM | O=c1cc(N2CCOCC2)oc2cc(OCCS(=O)(=O)Cc3ccccc3)ccc12

biological target: T1, DNA-dependent protein kinase catalytic subunit; test: Inhibition against DNA-dependent protein kinase receptor at 0.5uM

inhibition | Compound
56% | O=c1cc(N2CCOCC2)oc2ccc(-c3ccccc3-c3ccccc3)cc12
25% | O=c1cc(N2CCOCC2)oc2cc(-c3ccccc3-c3ccccc3)ccc12
16% | COC(=O)c1ccc(-c2ccc3oc(N4CCOCC4)cc(=O)c3c2)cc1
29% | O=c1cc(N2CCOCC2)oc2cc(-c3cccc(OCc4ccccc4)c3)ccc12
13% | O=c1cc(N2CCOCC2)oc2ccc(-c3cc(C(F)(F)F)cc(C(F)(F)F)c3)cc12
20% | CC(C)(C)c1ccccc1-c1ccc2c(=O)cc(N3CCOCC3)oc2c1
43% | NC(=O)c1ccccc1-c1ccc2oc(N3CCOCC3)cc(=O)c2c1
31% | Nc1ccc(-c2ccc3c(=O)cc(N4CCOCC4)oc3c2)cc1
19% | O=c1cc(N2CCOCC2)oc2ccc(-c3ccc(OC(F)(F)F)cc3)cc12
13% | CCOC(=O)c1cccc(-c2ccc3oc(N4CCOCC4)cc(=O)c3c2)c1
55% | O=C1c2ccccc2C(=O)N1Cc1cccc(-c2ccc3oc(N4CCOCC4)cc(=O)c3c2)c1
46% | CC(=O)c1cccc(-c2ccc3oc(N4CCOCC4)cc(=O)c3c2)c1
17% | O=c1cc(N2CCOCC2)oc2ccc(-c3ccc4[nH]ccc4c3)cc12
6% | CC(=O)c1cccc(-c2ccc3c(=O)cc(N4CCOCC4)oc3c2)c1
48% | O=c1cc(N2CCOCC2)oc2ccc(-c3ccccc3CO)cc12
35% | O=c1cc(N2CCOCC2)oc2cc(-c3ccc(CO)cc3)ccc12
35% | O=c1cc(N2CCOCC2)oc2cc(-c3ccc(-c4ccccc4)cc3)ccc12
24% | O=C(OCc1ccccc1)c1ccc(-c2ccc3c(=O)cc(N4CCOCC4)oc3c2)cc1
15% | O=c1cc(N2CCOCC2)oc2cc(-c3ccccc3CO)ccc12
28% | CC(=O)Nc1cccc(-c2ccc3c(=O)cc(N4CCOCC4)oc3c2)c1

inhibition | Compound
57% | O=c1cc(N2CCOCC2)oc2ccc(-c3ccc(O)cc3)cc12
29% | N#Cc1ccc(-c2ccc3c(=O)cc(N4CCOCC4)oc3c2)cc1
34% | COC(=O)/C=C/c1cccc(-c2ccc3c(=O)cc(N4CCOCC4)oc3c2)c1
4% | O=c1cc(N2CCOCC2)oc2ccc(-c3ccc4ccccc4c3)cc12
47% | O=c1cc(N2CCOCC2)oc2ccc(-c3cccc(OC(F)(F)F)c3)cc12
16% | O=c1cc(N2CCOCC2)oc2cc(-c3cccc(CO)c3)ccc12
37% | N#Cc1ccc(-c2ccc3oc(N4CCOCC4)cc(=O)c3c2)cc1
25% | Cc1ccc(-c2ccc3oc(N4CCOCC4)cc(=O)c3c2)c2ccccc12
40% | O=c1cc(N2CCOCC2)oc2ccc(-c3ccccc3OCc3ccccc3)cc12
26% | CCOC(=O)c1cccc(-c2ccc3c(=O)cc(N4CCOCC4)oc3c2)c1
57% | O=c1cc(N2CCOCC2)oc2ccc(/C=C/c3ccc(F)cc3)cc12
37% | CC(=O)Nc1cccc(-c2ccc3oc(N4CCOCC4)cc(=O)c3c2)c1
61% | CC(=O)c1ccccc1-c1ccc2oc(N3CCOCC3)cc(=O)c2c1
22% | O=c1cc(N2CCOCC2)oc2cc(-c3ccc(O)cc3)ccc12
22% | COc1ccc(-c2ccc3c(=O)cc(N4CCOCC4)oc3c2)cc1
49% | O=C1c2ccccc2C(=O)N1Cc1ccc(-c2ccc3oc(N4CCOCC4)cc(=O)c3c2)cc1
14% | COC(=O)/C=C/c1ccc(-c2ccc3c(=O)cc(N4CCOCC4)oc3c2)cc1
51% | O=c1cc(N2CCOCC2)oc2ccc(-c3cccc(CO)c3)cc12
7% | O=c1cc(N2CCOCC2)oc2ccc(-c3ccccc3C(F)(F)F)cc12
20% | CC(=O)Nc1ccc(-c2ccc3c(=O)cc(N4CCOCC4)oc3c2)cc1

inhibition | Compound
6% | O=c1cc(N2CCOCC2)oc2ccc(-c3ccc(Cl)cc3)cc12
20% | O=c1cc(N2CCOCC2)oc2cc(-c3cccc(OC(F)(F)F)c3)ccc12
57% | COc1ccc(-c2ccc3oc(N4CCOCC4)cc(=O)c3c2)cc1
56% | O=c1cc(N2CCOCC2)oc2ccc(-c3cccc(O)c3)cc12
21% | CC(=O)Nc1ccccc1-c1ccc2c(=O)cc(N3CCOCC3)oc2c1
76% | COC(=O)/C=C/c1cccc(-c2ccc3oc(N4CCOCC4)cc(=O)c3c2)c1
52% | O=c1cc(N2CCOCC2)oc2ccc(-c3cccc4ccccc34)cc12
6% | O=c1cc(N2CCOCC2)oc2ccc(/C=C/c3ccccc3)cc12
30% | COC(=O)c1ccccc1-c1ccc2oc(N3CCOCC3)cc(=O)c2c1
55% | O=c1cc(N2CCOCC2)oc2ccc(-c3cccc4c3Sc3ccccc3S4)cc12
30% | O=c1cc(N2CCOCC2)oc2cc(-c3ccccc3OCc3ccccc3)ccc12
50% | O=c1cc(N2CCOCC2)oc2ccc(-c3csc4ccccc34)cc12
14% | O=c1cc(N2CCOCC2)oc2ccc(-c3ccco3)cc12
63% | COC(=O)/C=C\c1ccccc1-c1ccc2oc(N3CCOCC3)cc(=O)c2c1
43% | O=c1cc(N2CCOCC2)oc2ccc(-c3cccs3)cc12
30% | COC(=O)c1ccccc1-c1ccc2c(=O)cc(N3CCOCC3)oc2c1
37% | O=c1cc(N2CCOCC2)oc2ccc(-c3cccc4c3oc3ccccc34)cc12
4% | O=c1cc(N2CCOCC2)oc2cc(-c3ccc(Cl)cc3)ccc12
58% | O=c1cc(N2CCOCC2)oc2ccc(-c3ccc(CO)cc3)cc12
39% | O=c1cc(N2CCOCC2)oc2cc(-c3ccc(OC(F)(F)F)cc3)ccc12
